# According to PMC8421423, “Cellular model system to dissect the isoform-selectivity of Akt inhibitors” (Nature Communications, 2021):
# “And” between values parts separate entries of the source, which are not always exact repeats. Identical values can stand only once. Like-named read-outs stand apart in the source and are kept apart here.
# Columns and labels:
# [1] = CellTiter-Glo cell viability assay; format: cell-based, murine; conditions: mouse; for viability at 3 days, 5 µM: 5000 nM
# Protocol: (§1) On day 0, cells were plated into white 384-well cell culture plates (Greiner Bio-One) using a Multidrop reagent dispenser (Thermo Fisher Scientific) at cell numbers that ensure linear and optimal luminescent signal intensity (Ba/F3myr-Akt1: 600 cells/well, Ba/F3myr-Akt2: 800 cells/well, Ba/F3myr-Akt3: 800 cells/well). […] Cell viability was analyzed on day 4 using the CellTiter-Glo Assay (Promega) as per the manufacturer’s instructions. […] All experimental points were measured in duplicates for each plate and were replicated in at least three plates.
# parental Ba/F3 cells = assay: CellTiter-Glo cell viability assay; format: cell-based, murine; conditions: for cell viability: CTG, parental
# Protocol: as §1
# [2] = tested on: pAkt^S473 and downstream targets in Ba/F3 myr-Akt1; conditions: Ba/F3 myr-Akt1, 4-h treatment
# Ba/F3^myr-Akt1 cells = assay: CellTiter-Glo cell viability assay; conditions: for viability at 0.0001 µM: read-out: cell viability, CTG, myr-Akt1, 0.1 nM, single replicates; for viability at 5 µM: read-out: cell viability, CTG, myr-Akt1, 5000 nM, single replicates; for cell viability: CTG
# Protocol: as §1
# Ba/F3^myr-Akt2 cells = assay: CellTiter-Glo cell viability assay
# Ba/F3^myr-Akt3 cells = assay: CellTiter-Glo cell viability assay; conditions: for viability at 5 µM: read-out: cell viability, CTG, myr-Akt3, 5000 nM, single replicates; for cell viability: CTG
# Akt1 = Akt1 (Homo sapiens, UniProt P31749); assay: STK HTRF KinEASE activity-based assay (IC50); conditions: biochemical activity based assay, log units
# Sequence of Akt1 (P31749 whole entry): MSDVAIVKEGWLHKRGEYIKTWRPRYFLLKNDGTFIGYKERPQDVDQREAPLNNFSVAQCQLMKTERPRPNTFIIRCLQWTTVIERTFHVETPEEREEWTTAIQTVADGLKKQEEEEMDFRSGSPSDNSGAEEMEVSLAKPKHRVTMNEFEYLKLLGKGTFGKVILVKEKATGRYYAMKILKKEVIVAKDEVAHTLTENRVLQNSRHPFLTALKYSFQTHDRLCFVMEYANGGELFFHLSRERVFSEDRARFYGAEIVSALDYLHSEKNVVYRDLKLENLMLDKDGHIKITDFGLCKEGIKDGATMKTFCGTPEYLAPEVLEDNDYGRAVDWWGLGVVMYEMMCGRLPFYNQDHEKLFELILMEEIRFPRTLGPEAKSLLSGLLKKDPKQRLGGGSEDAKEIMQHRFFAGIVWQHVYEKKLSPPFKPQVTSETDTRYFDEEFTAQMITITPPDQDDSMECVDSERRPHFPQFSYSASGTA
# [3] = tested on: pAkt^S473 and downstream targets in Ba/F3 myr-Akt3; assay: Western blot analysis, Ba/F3 myr-Akt3 cells; format: cell-based, murine; conditions: Ba/F3 myr-Akt3, 4-h treatment
# Protocol: Cells were seeded into six-well tissue culture plates (Sarstedt) (BaF3 myr-Akt1/2/3: 10^6 cells/well, PANC1: 250.000 cells/well). After 24 h incubation, cells were treated with various concentrations of inhibitors or DMSO and incubated for additional 4.5 h before cells were washed twice with ice-cold PBS. Cell lysis was initiated by addition of 100 μL RIPA buffer (Cell Signaling Technology) per well supplemented with phosphatase and protease inhibitor cocktails (Sigma) followed by incubation on ice for 20 min. Cells were then harvested by scraping (PANC1) or centrifugation (BaF3). Whole cell lysates were cleared by centrifugation at 14,000×g/4 °C for 10 min and transferred into fresh, pre-cooled microcentrifuge tubes. Protein concentrations were determined using the Pierce BCA protein assay (Thermo) as per manufacturer’s instructions. Equal amounts of protein were separated by SDS-PAGE and transferred to Immobilon-FL PVDF membranes (Merck Millipore) using Pierce™ 1-step transfer buffer (Thermo) and the Pierce™ Power Blotter (Thermo). Membranes were washed for 5 min with ddH2O, blocked with Intercept®Blocking Buffer TBS (Li-Cor) for 1 h at room temperature, and then incubated with primary antibodies diluted in Intercept®Blocking Buffer TBS overnight at 4 °C with gentle agitation. […]
# [4] = Mus musculus, BaF3, parental cells, mean of replicates, read-out: CTG BaF3, Mean
# [5] = Mus musculus, BaF3, parental cells, single replicates, read-out: CTG BaF3, individual determinations
# [6] = parental cells, single replicates, read-out: CTG BaF3, individual determinations
# [7] = Mus musculus, read-out: CTG BaF3myr-Akt1, Mean, mean of replicates
# [8] = Mus musculus, read-out: CTG BaF3myr-Akt1, individual determinations, single replicates
# [9] = cell viability assay Ba/F3 myr-Akt cells, log units
# [10] = read-out: CTG BaF3myr-Akt1, individual determinations, single replicates
# [11] = Mus musculus, read-out: CTG BaF3myr-Akt3, individual determinations, single replicates
# [12] = read-out: CTG BaF3myr-Akt3, individual determinations, single replicates
# [13] = 0.1 nM, single replicates, 0.0001 µM
# [14] = 5000 nM, single replicates, 5 µM
# [15] = myr-Akt1, 0.1 nM, single replicates, 0.0001 µM
# [16] = myr-Akt1, 5000 nM, single replicates, 5 µM
# [17] = myr-Akt3, 0.1 nM, single replicates, 0.0001 µM
# [18] = myr-Akt3, 5000 nM, single replicates, 5 µM
Structure (SMILES),EC50 (parental Ba/F3 cells; [4]) [µM],EC50 (parental Ba/F3 cells; [5]) [µM],EC50 (parental Ba/F3 cells; [6]),pAkt and downstream targets (immunoblot) [2],EC50 (Ba/F3^myr-Akt1 cells; [7]) [µM],EC50 (Ba/F3^myr-Akt1 cells; [8]) [µM],viability at 0.0001 µM (Ba/F3^myr-Akt1 cells; Mus musculus) [%],viability at 5 µM (Ba/F3^myr-Akt1 cells; Mus musculus) [%],EC50 (Ba/F3^myr-Akt1 cells; [10]),EC50 (Ba/F3^myr-Akt3 cells; [11]) [µM],viability at 5 µM (Ba/F3^myr-Akt3 cells; Mus musculus) [%],EC50 (Ba/F3^myr-Akt3 cells; [12]),cell viability (parental Ba/F3 cells; [13]),cell viability (parental Ba/F3 cells; [14]),pAkt and downstream targets (immunoblot) [3],cell viability (Ba/F3^myr-Akt1 cells; [15]),cell viability (Ba/F3^myr-Akt1 cells; [16]),cell viability (Ba/F3^myr-Akt3 cells; [17]),cell viability (Ba/F3^myr-Akt3 cells; [18]),also measured
"C=CC(=O)Nc1ccc2[nH]c(=O)n(C3CCN(Cc4ccc(-c5nc(C)c(=O)[nH]c5-c5ccccc5)cc4)CC3)c2c1 [15a, reference compound]",> 30,> 30,> 30 µM,more potent towards myr-Akt1 than myr-Akt2 and myr-Akt3,7.21,7.37,107,72.2,7.33 µM and 7.9 µM and 6.25 µM,> 30,99.8,> 30 µM (2×) and 17.8 µM,,,,,,,,"viability at 3 days, 0.0001 µM ([1]; cell viability): 107%; EC50 (parental Ba/F3 cells; Mus musculus, BaF3, CTG, parental BaF3 cell line, read-out: EC50 BaF3): > 30 µM; Log ratio EC50 [Akt] / EC50 [Akt], Akt1 / Akt2 (Ba/F3^myr-Akt1 cells; [9]): -0.31; EC50 (Ba/F3^myr-Akt2 cells; Mus musculus, read-out: CTG BaF3myr-Akt2, Mean, mean of replicates): 14.9 µM; viability at 0.0001 µM (Ba/F3^myr-Akt2 cells; Mus musculus, read-out: cell viability, CTG, myr-Akt2, 0.1 nM, single replicates): 100%; viability at 5 µM (Ba/F3^myr-Akt2 cells; Mus musculus, read-out: cell viability, CTG, myr-Akt2, 5000 nM, single replicates): 96.1%; EC50 (Ba/F3^myr-Akt2 cells; read-out: CTG BaF3myr-Akt2, individual determinations, single replicates): 13.5 µM and 21.4 µM and 14.1 µM and 10.4 µM; viability at 0.0001 µM (Ba/F3^myr-Akt3 cells; Mus musculus, read-out: cell viability, CTG, myr-Akt3, 0.1 nM, single replicates): 105%; Log ratio EC50 [Akt] / EC50 [Akt], Akt3 / Akt2 (Ba/F3^myr-Akt3 cells; [9]): -0.26; Log ratio IC50 [Akt] / IC50 [Akt], Akt1 / Akt2 (Akt1): -2.52"
"C=CC(=O)Nc1ccc2[nH]c(=O)n(C3CCN(Cc4ccc(-c5[nH]c(=O)c(CC(C)C)nc5-c5ccccc5)cc4)CC3)c2c1 [16b, reference compound]",20.1,21.6,15.9 µM and 22.9 µM,,,29.7,99,102,29.8 µM and > 30 µM,,,> 30 µM and 24.5 µM and 11.4 µM,102.9 % of control and 116.0 % of control and 91.9 % of control,99.0 % of control and 116.0 % of control,preferential binding,105.6 % of control,102.7 % of control and 99.1 % of control,96.8 % of control,61.2 % of control,"viability at 3 days, 5 µM ([1]; parental Ba/F3 cells, CTG, parental, single replicates): 98%"
"C=CC(=O)Nc1ccc2[nH]c(=O)n(C3CCN(Cc4ccc(-c5nc6cc[nH]c(=O)c6cc5-c5ccccc5)cc4)CC3)c2c1 [Borussertib, reference compound]",,,,dose-dependent reduction of pAkt,0.44,0.341,90,,0.491 µM and 0.488 µM,6.16,73.8,6.18 µM and 7.62 µM and 7.38 µM,106.4 % of control and 91.0 % of control,102.2 % of control and 91.4 % of control,dose-dependent reduction of pAkt,99.2 % of control and 105.4 % of control,3.1 % of control and 7.0 % of control and 4.5 % of control,96.6 % of control and 95.9 % of control,70.7 % of control and 65.0 % of control,"viability at 3 days, 0.0001 µM ([1]; CTG, parental, 0.1 nM, single replicates, read-out: cell viability): 98.5%; viability at 3 days, 5 µM ([1]; CTG, parental, single replicates): 108%; EC50 (parental Ba/F3 cells; Mus musculus, BaF3, read-out: CTG BaF3, Mean, parental cells, mean of replicates): 20.1 µM; EC50 (parental Ba/F3 cells; read-out: CTG BaF3, individual determinations, parental cells, single replicates): 16.8 µM and 10.9 µM and 24.4 µM; EC50 (Ba/F3^myr-Akt3 cells; Mus musculus, read-out: CTG BaF3myr-Akt3, Mean, mean of replicates): 6.84 µM"
